Measurements published in patent US7326682B2 (priority 1998, dated 2008).
Counter-ions that a name gives are not always drawn.

Test system: rat prostatic vas deferens

## COC(=O)[C@@H]1[C@H]2C[C@H]3c4[nH]c5ccccc5c4CCN3C[C@@H]2CC[C@@H]1O [yohimbine, yohimbine hydrochloride]
  effect on the evoked responses: no effect
